A word on the IC50: it is the concentration that inhibits the measured activity by half. A lower IC50 goes with greater potency.

The text below walks through data of PubChem BioAssay AID2305 (GlaxoSmithKline (GSK), 2010).

The subject of this test is P. falciparum 3D7 growth, pLDH absorbance. Description: blood-stage malaria parasite growth potency – strain 3D7, dose response (AID 2305).
As for `COc1ccc(F)cc1-c1cccc(CNC2CCN(CC3Cn4c(=O)ccc5ccc(F)c3c54)CC2)c1` (centres undefined), the IC50 was found to be 830 nM.

Consider `CN1CCC(N(Cc2ccc(-c3ccc(C(F)(F)F)cc3)cc2)C(=O)Cn2c(SCc3cccc(F)c3F)cc(=O)c3c2CCC3)CC1`, for which the 50% inhibitory concentration (IC50) worked out at 160 nM.

For the compound `O=C(/C=C/c1ccc(Cl)c(Cl)c1)NCCCCCN1CCC(NC(=O)Nc2ccc(F)c(F)c2)CC1`, the IC50 was found to be 840 nM.

Regarding `CC(C)c1ccc(S(=O)(=O)Nc2cccc(CCN3CCC(N4CCCCC4)CC3)c2)cc1`, the IC50 was 1120 nM.

In turn, `CN(C)CCCOc1ccc(CCCCc2ccc(Cl)cc2C(=O)c2ccccc2)cc1` displayed an IC50 of 1030 nM.

`Cc1nc2ccc(/C=C/C(=O)NC3CCC(CCN4CCc5ccc(C#N)cc5CC4)CC3)cc2[nH]1` (centres undefined) displayed an IC50 of 1140 nM.

Compound `COc1cccc2[nH]c(NCCCNCc3cc(Br)cc(Br)c3)nc12` yielded an IC50 of 950 nM.

With `CCOc1cc(C(=O)NCCCN2CCN(c3cccc(Cl)c3)CC2)ccc1-c1nc2cc(Cl)c(F)cc2[nH]1`, the IC50 was found to be 870 nM.

Turning to `CN1CCN(c2ccnc3ccc(NC(=O)Nc4ccc(Cl)cc4)cc23)CC1`, the IC50 was 110 nM.

As for `CC(C)N(Cc1cnc(N)c(C#N)n1)c1ccc(Cl)c(Cl)c1`, the IC50 stood at 840 nM.

Compound `c1ccc(-c2csc(Nc3nc4cc5c(cc4s3)OCO5)n2)nc1` displayed an IC50 of 580 nM.

Turning to `Nc1nc(Cc2ccc(Cl)cc2)nc(Cc2ccc(Cl)cc2)n1`, the IC50 was found to be 930 nM.

As for `CCCCCCn1ccc2c3c(N)nc(N)nc3ccc21`, the IC50 came to 150 nM.

The compound `Cc1cc(C=C(P(=O)(OC(C)C)OC(C)C)P(=O)(OC(C)C)OC(C)C)c2ccccc2c1O` showed an IC50 of 1080 nM.

`O=C(C(=O)c1ccc(Nc2ccnc3cc(-c4ccccn4)ccc23)cc1)c1ccccc1` showed an IC50 of 970 nM.

As for `COc1cccc(CN2CCC(N3CCc4cc(NC(=O)c5cc(C)on5)ccc43)C2)c1OC` (centres undefined), the IC50 came to 950 nM.

Regarding `O=C(/C=C/c1ccccc1Cl)NC1CCC(CN2CCC(c3c[nH]c4ccncc34)CC2)CC1` (centres undefined), the IC50 was 330 nM.

As for `COc1ccc2nccc([C@@H](O)CN3CCC(NCc4nc5c([N+](=O)[O-])cccc5[nH]4)CC3)c2c1`, the IC50 amounted to 710 nM.

Consider `Cc1ccc(Nc2nc(C)cc(NCc3ccc(-n4ccnc4)cc3)n2)cc1`, for which the IC50 came out at 1010 nM.

In the case of `COc1ccc(CCN(C)CCCCc2ccc(NC(=O)c3cccc4c(=O)c5cc(F)ccc5sc34)cc2)cc1OC`, the IC50 came to 900 nM.

Consider `NC(N)=NCCCN(Cc1ccccc1)c1ccc(Cl)cc1`, for which the IC50 is 560 nM.

With `CN1CCCC(CN2CCN(Cc3ccc(-c4cccc(-c5nc6ccc(F)cc6[nH]5)c4)cc3)CC2)C1` (centres undefined), the IC50 is 180 nM.

`COc1ccc(N(c2nc(-c3cc(Cl)ccc3Cl)cs2)C2CCNC2)cc1` (centres undefined) showed an IC50 of 870 nM.

As to `Cc1cc(NC2CCN(CC3CCCCC3)C2)nc(Nc2ccc(Br)cc2)n1` (centres undefined), the IC50 amounted to 570 nM.

In turn, `CN1CCN(c2ccc(-c3nc4c(C(N)=O)c(OCc5cc(Cl)cc(Cl)c5)ccc4[nH]3)cc2)CC1` gave an IC50 of 660 nM.

`COc1cc2c(c(Cl)c1OC)CCN(Cc1ccccc1)CC2c1ccc(NC(=O)C(F)(F)F)cc1` (centres undefined) yielded an IC50 of 920 nM.

`Cc1ccc(N2C(N)=NC(N)=NC2(C)C)cc1` registered an IC50 of 40 nM.

As for `Fc1ccc(C=NNc2nc3ccccc3[nH]2)cc1`, the IC50 amounted to 780 nM.

Compound `Cc1cccc2[nH]c(-c3ccc(-c4ccc(CN5CCC(CCN6CCCCC6)CC5)cc4)cc3)nc12` gave an IC50 of 140 nM.

`CCCCCCN1CCCN(Cc2ccc(C(=O)Nc3ccc(C)c(F)c3)cc2)CC1` displayed an IC50 of 330 nM.

The compound `Cc1cccc2[nH]c(-c3ccc(-c4ccc(CN5CCN(c6ccncc6)CC5)cc4)s3)nc12` came in with an IC50 of 110 nM.

`Cc1c(O)cccc1Nc1ccnc2ccc(C(F)(F)F)cc12` returned an IC50 of 30 nM.

Turning to `O=C(/C=C/c1ccc(Cl)c(Cl)c1)NCCCCCN1CCN(C(=O)Nc2ccc(OC(F)F)cc2)CC1`, the IC50 is 950 nM.

In the case of `CN(C)CCCOc1cc(NC(=O)Nc2ccc(-c3ccncc3)c3ccccc23)ccc1I`, the IC50 is 700 nM.

In the case of `CCN(CC)c1ccc(C(=O)Cn2ccc(=N)cc2)cc1`, the IC50 was 1000 nM.

Turning to `O=C(Nc1ccc(-c2cccc(-c3nc4ccc(C(F)(F)F)cc4[nH]3)c2)cc1)c1cccnc1`, the IC50 was determined as 720 nM.

In turn, `COc1ccc(Cc2c(C)nc3nc(N)nc(N)c3c2C)cc1` gave an IC50 of 280 nM.

Turning to `CC(C)[C@H](NC(=O)c1ccc(O)c(-c2ccc(Cl)c(Cl)c2)c1)C(=O)NCCN(C)C`, the half-maximal inhibitory concentration (IC50) came to 1050 nM.

On to `COc1c(C2CCN(CCCCNC(=O)c3ccc(-c4ccc(C#N)cc4)cc3)CC2)cc(Cl)c2c1CCCC2`, for which the IC50 was determined as 780 nM.

With `CCCc1cc(NCC)nc(Nc2ccc(C)cc2)n1`, the IC50 came out at 890 nM.

Compound `O=C(O)c1ccc2c(c1)N(C(=O)CNCc1ccc(F)cc1)CC(=O)N2CCCc1ccccc1` had an IC50 of 920 nM.

Take `COc1ccc(OC)c(CC2c3ccc(Br)c(O)c3CCN2C)c1` (centres undefined): the IC50 turned out to be 750 nM.

For the compound `CCCCc1ccc(CCNCCCCCCNCCc2ccc(O)c(O)c2)cc1`, the IC50 turned out to be 1070 nM.

With `C[C@@H]1CN(c2ccnc3ccc(Sc4ccc(Oc5ccccc5)cc4)cc23)C[C@H](C)N1`, the IC50 stood at 780 nM.

With `CNC(=O)c1cnc(Nc2ccc(N3CCOCC3)cc2)nc1Nc1cccc(O)c1`, the IC50 was found to be 810 nM.

As for `O=C(/C=C/c1c[nH]c2ccccc12)NCCCCCN1CCC(c2c[nH]c3ccccc23)CC1`, the IC50 amounted to 930 nM.

Regarding `Oc1ccc(Cl)cc1Nc1nc(C(F)(F)F)nc2ccccc12`, the IC50 came to 940 nM.

Consider `C=C[C@H]1CN2CC[C@H]1C[C@H]2[C@H](O)c1cc(/C=C/c2ccc(F)cc2)nc2ccc(OC)cc12`, for which the IC50 was found to be 30 nM.

The compound `Cc1cccc2[nH]c(-c3ccc(-c4cccc(NC(=O)NCc5cccc(F)c5)c4)s3)nc12` yielded an IC50 of 760 nM.

`COC(=O)c1cc2cccc(NC[C@@H](C)NC[C@H](O)c3cccc(Cl)c3)c2[nH]1` yielded an IC50 of 630 nM.

Consider `O=C(Nc1ccc(S(=O)(=O)N2CCCCC2)cc1)c1cc(-c2ccccc2O)n[nH]1`, for which the IC50 turned out to be 850 nM.

`CCOc1ccc(/C=C/C(=O)Nc2cccc3c2CCN(C)C3)cc1` gave an IC50 of 1110 nM.

With `O=C(N[C@H]1CCN(CCc2ccc(O[C@H]3CCNC3)cc2)C1)c1ccc(Cl)c(Cl)c1`, the IC50 worked out at 830 nM.

With `COc1ccccc1CNc1ccnc(N2CC(Oc3ccc(F)cc3)C2)n1`, the IC50 was determined as 850 nM.

On to `CCNc1cc(C)nc(Nc2ccccc2)n1`, for which the IC50 came to 880 nM.

`CN1CCC(C(=O)Nc2cccc(-c3cccc(-c4nc5ccc(F)cc5[nH]4)c3)c2)CC1` returned an IC50 of 690 nM.

Turning to `CC(=O)c1cccc(NC(=O)C2c3ccccc3C(=O)N(CC(C)C)C2c2cccs2)c1` (centres undefined), the IC50 is 590 nM.

`CC(C)C[C@H](NC(=O)c1ccc(OCCN2CCOCC2)cc1)C(=O)N[C@H](/C=N/N1CCNC1=O)CCc1ccccc1` had an IC50 of 370 nM.

In the case of `Oc1ccc2[nH]c(-c3cccs3)nc2c1CN1CCC(O)(c2ccccc2)CC1`, the IC50 was found to be 780 nM.

`CCN1CCN(CCCNc2c3ccccc3nc3ccccc23)CC1` showed a half-maximal inhibitory concentration (IC50) of 800 nM.

As for `CC[C@H](C)CNC(=O)c1cncc(-c2ccc(CN3CCC(N4CCCC4)CC3)cc2)c1`, the IC50 was 970 nM.

`CC(C)(C)c1cc(C(=O)N2CCN(c3ncnc4ccsc34)CC2)n(Cc2ccccc2)n1` yielded an IC50 of 910 nM.

Regarding `CC(O)C1CCCCN1C(=O)c1cccc(-c2cccc(-c3nc4ccc(F)cc4[nH]3)c2)c1` (centres undefined), the IC50 is 540 nM.

Consider `CN(C)CCC(O)(c1ccc(Br)cc1)c1cccnc1` (centres undefined), for which the IC50 stood at 830 nM.
